How the values were obtained:
Experiment in all cases: relative viability (nuclei count vs DMSO), 5 days (fraction); higher = more cells survive
[1] = compound: CC[C@H](C)N1C=C(C2=C(C=C(C=C21)C3=CN=C(C=C3)N4CCNCC4)C(=O)NCC5=C(C=C(NC5=O)C)C)C [GSK126] + C[C@@H](Oc1cc(-c2cnn(C3CCNCC3)c2)cnc1N)c1c(Cl)ccc(F)c1Cl [Crizotinib] (partner 1 µM)
How it was run: (§1)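 Relative viability divides the nuclei count in treated wells by that in vehicle wells. Lung cancer cell lines were seeded in 1536-well plates, dosed by pin tool the next day, and fixed and stained after 5 days in one step with final 0.05% Triton X-100, 1% formaldehyde and 1 ug/ml Hoechst. Dosing was a single drug or a fixed anchor-drug dose plus five library-drug doses (not always all listed) in √10 steps, and values are medians of duplicate plates imaged at 4×.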

[2] = compound: C1CC(C1)(C(=O)O)C(=O)O.[NH2-].[NH2-].[Pt+2] [Carboplatin] + N=C(N)NC(=N)NCCc1ccccc1 [Phenformin] (partner 250 µM)
How it was run: as §1

[3] = compound: NS(=O)(=O)OC[C@@H]1C[C@@H](n2ccc3c(N[C@H]4CCc5ccccc54)ncnc32)C[C@@H]1O [MLN4924] + CC(C)C[C@H](NC(=O)[C@H](Cc1ccccc1)NC(=O)c1cnccn1)B(O)O [Bortezomib] (partner 0.002 µM)
How it was run: as §1

[4] = compound: C1CC(C1)(C(=O)O)C(=O)O.[NH2-].[NH2-].[Pt+2] [Carboplatin] + CC(=O)c1c(C)c2cnc(Nc3ccc(N4CCNCC4)cn3)nc2n(C2CCCC2)c1=O [Palbociclib] (partner 0.5 µM)
How it was run: as §1

| Cell Line | relative viability ([1]; first compound 0.08 µM) | relative viability ([1]; first compound 0.253 µM) | relative viability ([1]; first compound 0.8 µM) | relative viability ([1]; first compound 2.53 µM) | relative viability ([1]; first compound 8 µM) | relative viability ([2]; first compound 0.08 µM) | relative viability ([2]; first compound 0.253 µM) | relative viability ([2]; first compound 0.8 µM) | relative viability ([2]; first compound 2.53 µM) | relative viability ([2]; first compound 8 µM) | relative viability ([3]; first compound 0.04 µM) | relative viability ([3]; first compound 0.1265 µM) | relative viability ([3]; first compound 0.4 µM) | relative viability ([3]; first compound 1.265 µM) | relative viability ([3]; first compound 4 µM) | relative viability ([4]; first compound 0.08 µM) | relative viability ([4]; first compound 0.253 µM) | relative viability ([4]; first compound 0.8 µM) | relative viability ([4]; first compound 2.53 µM) | relative viability ([4]; first compound 8 µM) |
| --- | --- | --- | --- | --- | --- | --- | --- | --- | --- | --- | --- | --- | --- | --- | --- | --- | --- | --- | --- | --- |
| NCI-H2009 | 1.08 | 0.982 | 1.06 | 0.968 | 1.06 | 0.519 | 0.47 | 0.444 | 0.433 | 0.42 | 0.889 | 0.275 | 0.27 | 0.079 | 0.0747 | 0.203 | 0.202 | 0.182 | 0.207 | 0.183 |
| HCC-827 | 0.938 | 0.895 | 0.934 | 1.02 | 0.869 | 0.444 | 0.394 | 0.428 | 0.366 | 0.365 | 1.05 | 0.966 | 0.791 | 0.474 | 0.375 | 0.479 | 0.38 | 0.499 | 0.44 | 0.469 |
| NCI-H322M | 0.965 | 0.887 | 0.833 | 1.03 | 0.873 | 0.884 | 0.738 | 0.775 | 0.74 | 0.712 | 1.24 | 1.36 | 1.2 | 0.302 | 0.463 | 0.496 | 0.476 | 0.472 | 0.45 | 0.507 |
| NCI-H727 | 0.923 | 0.755 | 0.806 | 0.836 | 0.815 | 0.504 | 0.652 | 0.454 | 0.497 | 0.365 | 0.624 | 0.512 | 0.313 | 0.267 | 0.225 | 0.732 | 0.668 | 0.726 | 0.573 | 0.591 |
| BEN | 0.892 | 0.87 | 0.832 | 0.823 | 0.671 | 0.233 | 0.275 | 0.258 | 0.264 | 0.248 | 0.687 | 0.51 | 0.267 | 0.16 | 0.122 | 0.467 | 0.442 | 0.488 | 0.44 | 0.494 |
| CAL-12T | 0.805 | 0.67 | 0.699 | 0.398 | 0.441 | 0.56 | 0.584 | 0.591 | 0.534 | 0.557 | – | 0.971 | 0.659 | 0.369 | 0.22 | 0.402 | 0.514 | 0.506 | 0.483 | 0.406 |
| NCI-H1792 | 1.03 | 1.01 | 1.03 | 0.996 | 0.951 | 0.318 | 0.317 | 0.192 | 0.203 | 0.237 | 0.938 | 1 | 1.09 | 0.663 | 0.425 | 0.674 | 0.607 | 0.639 | 0.616 | 0.569 |
| NCI-H2085 | 0.879 | 0.966 | 0.951 | 0.778 | 0.887 | 0.88 | 0.741 | 0.695 | 0.737 | 0.775 | 1.09 | 1.09 | 1.1 | 0.76 | 0.648 | 0.473 | 0.486 | 0.462 | 0.456 | 0.452 |
| LCLC-103H | 1.07 | 1.18 | 1.01 | 1.01 | 1 | 0.325 | 0.357 | 0.347 | 0.32 | 0.348 | 1.04 | 1.16 | 0.955 | 0.346 | 0.301 | 0.538 | 0.469 | 0.543 | 0.431 | 0.444 |
| EKVX | 0.899 | 0.921 | 0.895 | 0.978 | 1.09 | 0.248 | 0.214 | – | 0.227 | 0.22 | 0.806 | 0.711 | 0.475 | 0.236 | 0.135 | 0.364 | 0.513 | 0.385 | 0.354 | 0.341 |
| 201T | 1.1 | 1.06 | 1.03 | 0.93 | 1.09 | 0.482 | 0.447 | 0.441 | 0.444 | 0.432 | 1.16 | 1.04 | 1.08 | 0.4 | 0.392 | 0.374 | 0.356 | 0.37 | 0.336 | 0.362 |
| NCI-H2023 | 0.839 | 0.678 | 0.747 | 0.74 | 0.747 | 0.447 | 0.413 | 0.381 | 0.27 | 0.145 | 0.927 | 0.796 | 0.113 | 0.0794 | 0.0811 | 0.433 | 0.384 | 0.318 | 0.326 | 0.121 |
| NCI-H2347 | 0.706 | 0.667 | 0.658 | 0.708 | 0.559 | 0.36 | 0.382 | 0.583 | 0.534 | 0.324 | 0.79 | 0.933 | 0.532 | 0.392 | 0.395 | 0.456 | 0.418 | 0.423 | 0.482 | 0.42 |
| LXF-289 | 0.821 | 0.786 | 0.799 | 0.739 | 0.8 | 0.566 | 0.584 | 0.519 | 0.539 | 0.502 | 0.928 | 0.707 | 0.516 | 0.269 | 0.162 | 0.629 | 0.59 | 0.635 | 0.563 | 0.583 |
| EMC-BAC-2 | 0.772 | 0.765 | 0.718 | 0.723 | 0.701 | 0.559 | 0.581 | 0.52 | 0.521 | 0.461 | 0.96 | 0.842 | 0.274 | 0.162 | 0.155 | 0.533 | 0.516 | 0.525 | 0.536 | 0.469 |
| LC-2-ad | 0.484 | 0.357 | 0.512 | 0.454 | 0.398 | 0.661 | 0.551 | 0.525 | 0.517 | 0.386 | 0.943 | 0.859 | 0.41 | 0.226 | 0.104 | 0.503 | 0.561 | 0.419 | 0.466 | 0.47 |

From the supplement of paper PMC10307832
